ChEMBL document CHEMBL1268991, “New stilbenoid with inhibitory activity on viral neuraminidases from Erythrina addisoniae” (Bioorg Med Chem Lett, 2010)

What was measured:
Neuraminidase [1] = molecular target: T1, Neuraminidase (Influenza A virus, UniProt B4URF0); test: Inhibition of influenza A virus H1N1 Neuraminidase using 4-methylumbelliferyl-alpha-D-N-acetylneuraminic acid sodium salt hydrate substrate
Neuraminidase [2] = molecular target: T1, Neuraminidase; test: Non-competitive inhibition of influenza A virus H1N1 Neuraminidase using 4-methylumbelliferyl-alpha-D-N-acetylneuraminic acid sodium salt hydrate substrate by Lineweaver burk plot
Neuraminidase [3] = molecular target: T1, Neuraminidase; test: Inhibition of influenza A virus H9N2 Neuraminidase using 4-methylumbelliferyl-alpha-D-N-acetylneuraminic acid sodium salt hydrate substrate

Row | SMILES | IC50 (Neuraminidase [1]) [µM] | Ki (Neuraminidase [2]) [µM] | IC50 (Neuraminidase [3]) [µM]
1 | CC(C)=CCc1cc(/C=C/C(=O)c2ccc(O)cc2O)cc(O)c1O [5'-PRENYLBUTEIN] | 64.4 | 66.7 | 60.1
2 | CC(C)=CCc1cc(/C=C/C(=O)c2ccc(O)cc2O)cc(CC=C(C)C)c1O [ABYSSINONE VI] | 67.4 | 70 | 62.6
3 | CC(C)=CCc1cc(-c2coc3cc(O)cc(O)c3c2=O)ccc1O [CORYLIN] | > 148 | – | > 148
4 | C=C(C)C(O)CC1=c2occ(-c3ccc(O)cc3)c(=O)c2=C(O)C2C=CC(C)(C)OC12 (configuration not stated) [ERYSENEGALENSEIN] | > 118 | – | > 118
5 | CC1(C)C=Cc2c(c(CO)c3occ(-c4ccc(O)cc4)c(=O)c3c2O)O1 [ERYTHRADDISON A] | > 136 | – | > 136
6 | COc1ccc(/C(C=O)=C\c2ccc(O)cc2OC)c(O)c1 [ERYTHRADDISON B] | 29.3 | 32.7 | 23.9
7 | CC1(C)C=Cc2cc(-c3coc4cc(O)ccc4c3=O)ccc2O1 [ISOWIGHTEONE] | > 156 | – | > 156
8 | CC(C)=CCc1cc(/C=C/C(=O)c2ccc(O)cc2O)ccc1O [LICOAGROCHALCONE A] | 66.3 | 68.9 | 61.7
9 | CC(C)=CCc1c(O)cc2occ(-c3ccc(O)cc3)c(=O)c2c1O [WIGHTEONE] | > 148 | – | > 148
